Key:
WDR5 = WDR5 (Homo sapiens, UniProt P61964); test: WDR5 HTRF binding assay; details: read-out: (a) WDR5 HTRF Pep Val v.1[Inhibitor/IC50]Qualified AC50
Method in brief: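 6 nM WDR5 and 20 nM biotin-MLL1 WIN peptide (3762-3773) were incubated with compound (12-point, 3-fold dilutions) in pH 7.5 Hepes/NaCl/DTT buffer for 20 min at rt. Streptavidin-APC plus anti-His-Eu were then added for 1 hr, with HTRF read at 665/615. IC50 was fit from control-normalized activity; the counter assay used 15 nM biotin-PEG-His peptide.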

[1] = target: wild type MLL1 four-member complex (MLL1-4C) (Homo sapiens, UniProt P61964); test: MLL1 LC-MS assay (SAH production); type: biochemical; details: read-out: (b) MLL LCMS Peptide Val.v.1 Qualified AC50
Method in brief: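 MLL1-4C (30 nM final) was preincubated 20 min with compound (3-fold dilutions, 8 or 12 points) and SAM in Tris-HCl pH 8.0 buffer. H3K4me0 peptide (histone H3[1-21]-biotin) was then added, giving final 2.5 μM SAM and 10 μM substrate, and reactions ran 120 min at rt. After TFA/d4-SAH quench, SAH was quantified by LC-MS/MS and IC50 fitted from control-normalised activity.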

MV4-11 cells = test: MV4-11 6-day cell growth CTG (CellTiter-Glo) assay; type: cell-based; details: Homo sapiens, MV4-11, 144 h, 6 days, read-out: (c) MLL/WDR5 cell proliferation assay//MLL/WDR5 proliferation MV4:11 Qualified AC50
Method in brief: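 Exponentially growing MV4-11 AML cells (RPMI 1640, 10% FBS) seeded at 300 cells/well with 12-point 1:3 compound dilutions, top final concentration 50 μM. Viability read by CellTiter-Glo luminescence after 6 days at 37° C; % inhibition vs DMSO-only wells fitted to dose-response for IC50.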

Row | SMILES | IC50 (WDR5) | AC50 [1] | AC50 (MV4-11 cells)
1 | CCOc1cc([C@H](C)N2CCc3c(cc(CCN(C)CC)cc3-c3cn(C)nc3C)C2=O)ncc1F [Example 145, (S)-5-(1,3-dimethyl-1H-pyrazol-4-yl)-2-(1-(4-ethoxy-5-fluoropyridin-2-yl)ethyl)-7-(2-(ethyl(methyl)amino)ethyl)-3,4-dihydroisoquinolin-1(2H)-one] | 10 to 1000 nM | 10 to 1000 nM | 10 to 1000 nM
2 | CCN(C)CCc1cc2c(c(-c3cn(C)nc3C(F)F)c1)CCN(C(C)c1cnc(F)c(OC)c1)C2=O (stereo not drawn) [Example 146, 5-(3-(difluoromethyl)-1-methyl-1H-pyrazol-4-yl)-7-(2-(ethyl(methyl)amino)ethyl)-2-(1-(6-fluoro-5-methoxypyridin-3-yl)ethyl)-3,4-dihydroisoquinolin-1(2H)-one] | 10 to 1000 nM | 10 to 1000 nM | 10 to 1000 nM
3 | CCOc1cc(C(C)N2CCc3c(cc(CCN(C)CC)cc3-c3ccc(Cl)nc3C)C2=O)ncc1C#N (stereo not drawn) [Example 147, 6-(1-(5-(6-chloro-2-methylpyridin-3-yl)-7-(2-(ethyl(methyl)amino)ethyl)-1-oxo-3,4-dihydroisoquinolin-2(1H)-yl)ethyl)-4-ethoxynicotinonitrile] | 10 to 1000 nM | 10 to 1000 nM | 10 to 1000 nM
4 | CCOc1cc(C(C)N2CCc3c(cc(CCN(C)CC)cc3-c3cn(C)nc3C(F)(F)F)C2=O)ncc1C#N (stereo not drawn) [Example 148, 4-ethoxy-6-(1-(7-(2-(ethyl(methyl)amino)ethyl)-5-(1-methyl-3-(trifluoromethyl)-1H-pyrazol-4-yl)-1-oxo-3,4-dihydroisoquinolin-2(1H)-yl)ethyl)nicotinonitrile] | 10 to 1000 nM | 10 to 1000 nM | 10 to 1000 nM
5 | CCOc1cc([C@H](C)N2CCc3c(cc(CCN(C)CC)cc3-c3cn(C)c(=O)cc3C(F)F)C2=O)ncc1C#N [Example 149, (S)-6-(1-(5-(4-(difluoromethyl)-1-methyl-6-oxo-1,6-dihydropyridin-3-yl)-7-(2-(ethyl(methyl)amino)ethyl)-1-oxo-3,4-dihydroisoquinolin-2(1H)-yl)ethyl)-4-ethoxynicotinonitrile] | 10 to 1000 nM | 10 to 1000 nM | 10 to 1000 nM
6 | CCOc1cc(C(C)N2CCc3c(cc(CCN(C)CC)cc3-c3cc(O)cnc3C)C2=O)ncc1C#N (stereo not drawn) [Example 150, 4-ethoxy-6-(1-(7-(2-(ethyl(methyl)amino)ethyl)-5-(5-hydroxy-2-methylpyridin-3-yl)-1-oxo-3,4-dihydroisoquinolin-2(1H)-yl)ethyl)nicotinonitrile] | 10 to 1000 nM | 10 to 1000 nM | 10 to 1000 nM
7 | CCOc1cc(C(C)N2CCc3c(cc(CCN(C)CC)cc3-c3cccnc3CC)C2=O)ncc1C#N (stereo not drawn) [Example 151, 4-ethoxy-6-(1-(7-(2-(ethyl(methyl)amino)ethyl)-5-(2-ethylpyridin-3-yl)-1-oxo-3,4-dihydroisoquinolin-2(1H)-yl)ethyl)nicotinonitrile] | 10 to 1000 nM | 10 to 1000 nM | 10 to 1000 nM
8 | CCOc1cc([C@H](C)N2CCc3c(cc(CCN(C)CC)cc3-c3ccncc3Cl)C2=O)ncc1C#N [Example 152, (S)-6-(1-(5-(3-chloropyridin-4-yl)-7-(2-(ethyl(methyl)amino)ethyl)-1-oxo-3,4-dihydroisoquinolin-2(1H)-yl)ethyl)-4-ethoxynicotinonitrile] | 10 to 1000 nM | 10 to 1000 nM | 10 to 1000 nM
9 | CCOc1cc(C(C)N2CCc3c(cc(CCN(C)CC)cc3-c3cc(C(C)O)cnc3Cl)C2=O)ncc1C#N (stereo not drawn) [Example 153, 6-(1-(5-(2-chloro-5-(1-hydroxyethyl)pyridin-3-yl)-7-(2-(ethyl(methyl)amino)ethyl)-1-oxo-3,4-dihydroisoquinolin-2(1H)-yl)ethyl)-4-ethoxynicotinonitrile] | 10 to 1000 nM | 10 to 1000 nM | 10 to 1000 nM
10 | CCOc1cc(CN2CCc3c(cc(CCN(C)CC)cc3-c3cc(C)ncc3F)C2=O)ncc1C#N [Example 154, 4-ethoxy-6-((7-(2-(ethyl(methyl)amino)ethyl)-5-(5-fluoro-2-methylpyridin-4-yl)-1-oxo-3,4-dihydroisoquinolin-2(1H)-yl)methyl)nicotinonitrile] | 10 to 1000 nM | 10 to 1000 nM | 10 to 1000 nM
11 | CCOc1cc(CN2CCc3c(cc(CCN(C)CC)cc3-c3ccc(N)nc3C)C2=O)ncc1C#N [Example 155, 6-((5-(6-amino-2-methylpyridin-3-yl)-7-(2-(ethyl(methyl)amino)ethyl)-1-oxo-3,4-dihydroisoquinolin-2(1H)-yl)methyl)-4-ethoxynicotinonitrile] | 10 to 1000 nM | 10 to 1000 nM | 10 to 1000 nM
12 | CCOc1cc([C@@H](C)N2CCc3c(cc(CCN(C)CC)cc3-c3cc(C)cnc3C)C2=O)ncc1C#N [Example 156, (R)-6-(1-(5-(2,5-dimethylpyridin-3-yl)-7-(2-(ethyl(methyl)amino)ethyl)-1-oxo-3,4-dihydroisoquinolin-2(1H)-yl)ethyl)-4-ethoxynicotinonitrile] | 10 to 1000 nM | 10 to 1000 nM | 1000 to 25000 nM
13 | CCOc1cc([C@H](C)N2CCc3c(cc(CCN(C)CC)cc3-c3cncn3C)C2=O)ncc1C#N [Example 157, (S)-4-ethoxy-6-(1-(7-(2-(ethyl(methyl)amino)ethyl)-5-(1-methyl-1H-imidazol-5-yl)-1-oxo-3,4-dihydroisoquinolin-2(1H)-yl)ethyl)nicotinonitrile] | 10 to 1000 nM | 10 to 1000 nM | 1000 to 25000 nM
14 | CCOc1cc(C(C)N2CCc3c(cc(CCN(C)CC)cc3C3CC3)C2=O)ncc1C#N (stereo not drawn) [Example 158, 6-(1-(5-cyclopropyl-7-(2-(ethyl(methyl)amino)ethyl)-1-oxo-3,4-dihydroisoquinolin-2(1H)-yl)ethyl)-4-ethoxynicotinonitrile] | 10 to 1000 nM | 10 to 1000 nM | 1000 to 25000 nM
15 | CCOc1cc([C@H](C)N2CCc3c(cc(CCN(C)CC)cc3-c3cc(C4CC4)cnc3C)C2=O)ncc1C#N [Example 160, (S)-6-(1-(5-(5-cyclopropyl-2-methylpyridin-3-yl)-7-(2-(ethyl(methyl)amino)ethyl)-1-oxo-3,4-dihydroisoquinolin-2(1H)-yl)ethyl)-4-ethoxynicotinonitrile] | < 10 nM | 10 to 1000 nM | 10 to 1000 nM
16 | CCOc1cc([C@H](C)N2CCc3c(cc(CCN(C)CC)cc3-c3ccn(C)c(=O)c3C)C2=O)ncc1C#N [Example 161, (S)-6-(1-(5-(1,3-dimethyl-2-oxo-1,2-dihydropyridin-4-yl)-7-(2-(ethyl(methyl)amino)ethyl)-1-oxo-3,4-dihydroisoquinolin-2(1H)-yl)ethyl)-4-ethoxynicotinonitrile] | < 10 nM | 10 to 1000 nM | 10 to 1000 nM
17 | CCOc1cc([C@H](C)N2CCc3c(cc(CCN(C)CC)cc3-c3cc(N)ncc3C)C2=O)ncc1C#N [Example 162, (S)-6-(1-(5-(2-amino-5-methylpyridin-4-yl)-7-(2-(ethyl(methyl)amino)ethyl)-1-oxo-3,4-dihydroisoquinolin-2(1H)-yl)ethyl)-4-ethoxynicotinonitrile] | < 10 nM | 10 to 1000 nM | 10 to 1000 nM
18 | CCOc1cc([C@H](C)N2CCc3c(cc(CCN(C)CC)cc3-c3cc(C)ncc3C)C2=O)ncc1C#N [Example 163, (S)-6-(1-(5-(2,5-dimethylpyridin-4-yl)-7-(2-(ethyl(methyl)amino)ethyl)-1-oxo-3,4-dihydroisoquinolin-2(1H)-yl)ethyl)-4-ethoxynicotinonitrile] | < 10 nM | 10 to 1000 nM | 10 to 1000 nM
19 | CCOc1cc(CN2CCc3c(cc(CCN(C)CC)cc3-c3cc(OC)ncc3C)C2=O)ncc1C#N [Example 164, 4-ethoxy-6-((7-(2-(ethyl(methyl)amino)ethyl)-5-(2-methoxy-5-methylpyridin-4-yl)-1-oxo-3,4-dihydroisoquinolin-2(1H)-yl)methyl)nicotinonitrile] | < 10 nM | 10 to 1000 nM | 10 to 1000 nM
20 | CCOc1cc([C@H](C)N2CCc3c(cc(CCN(C)CC)cc3-c3cn(CC)nc3C(F)F)C2=O)ncc1C#N [Example 165, (S)-6-(1-(5-(3-(difluoromethyl)-1-ethyl-1H-pyrazol-4-yl)-7-(2-(ethyl(methyl)amino)ethyl)-1-oxo-3,4-dihydroisoquinolin-2(1H)-yl)ethyl)-4-ethoxynicotinonitrile] | < 10 nM | 10 to 1000 nM | 10 to 1000 nM
21 | CCOc1cc([C@H](C)N2CCc3c(cc(CCN(C)CC)cc3-c3cc(C)ncc3Cl)C2=O)ncc1C#N [Example 166, (S)-6-(1-(5-(5-chloro-2-methylpyridin-4-yl)-7-(2-(ethyl(methyl)amino)ethyl)-1-oxo-3,4-dihydroisoquinolin-2(1H)-yl)ethyl)-4-ethoxynicotinonitrile] | < 10 nM | 10 to 1000 nM | 10 to 1000 nM
22 | CCOc1cc([C@H](C)N2CCc3c(cc(CCN(C)CC)cc3-c3cc(OC)cnc3C)C2=O)ncc1C#N [Example 167, (S)-4-ethoxy-6-(1-(7-(2-(ethyl(methyl)amino)ethyl)-5-(5-methoxy-2-methylpyridin-3-yl)-1-oxo-3,4-dihydroisoquinolin-2(1H)-yl)ethyl)nicotinonitrile] | < 10 nM | 10 to 1000 nM | 10 to 1000 nM
